Laboratory results: ChEMBL document CHEMBL5584353, “Design, Synthesis, and Biological Evaluation of Potent EZH2/LSD1 Dual Inhibitors for Prostate Cancer” (J Med Chem, 2024)
pIC50: −log10 of the molar value. Calls of active or inactive are those of the source. The calls are words filed in the database; no cut-off is given here.

Assays:
[1] = target: T1, Lysine-specific histone demethylase 1A (Homo sapiens, UniProt O60341); assay: Inhibition of recombinant human LSD1 using Histone H3 as fluorometric substrate incubated for 30 mins by HRP based plate reader assay
PC-3 [2] = assay: Growth inhibition of human PC-3 cells incubated for 6 to 7 days by MTS assay; format: functional; settings: time 6-7 day
[3] = Inhibition of LSD2 (unknown origin); set-up: species or system Homo sapiens
[4] = target: T1, Lysine-specific histone demethylase 1A; assay: Binding affinity to recombinant human LSD1 assessed as increase in thermal stability at 5 uM at 38 to 58 degreeC incubated for 48 hrs by cellular thermal shift assay
[5] = target: T1, Lysine-specific histone demethylase 1A; assay: Inhibition of LSD1 in human 22Rv1 cells assessed as upregulation of H3K4me2 expression at 1 to 5 uM incubated for 5 days by Western blotting analysis; format: cell-based; settings: dose 1-5 µM, time 5.0 day
[6] = target: T1, Lysine-specific histone demethylase 1A; assay: Inhibition of LSD1 in human PC-3 cells assessed as upregulation of H3K4me2 expression at 1 to 5 uM incubated for 5 days by Western blotting analysis; format: cell-based; settings: dose 1-5 µM, time 5.0 day
[7] = target: T1, Lysine-specific histone demethylase 1A; assay: Inhibition of LSD1 in human 22Rv1 cells assessed as upregulation of H3K9me2 expression at 1 to 5 uM incubated for 5 days by Western blotting analysis; format: cell-based; settings: dose 1-5 µM, time 5.0 day
CWR22R [8] = assay: Induction of apoptosis in human 22Rv1 cells at 5 uM incubated for 5 days by Annexin V-FITC/PI staining based flow cytometric analysis (reference value: 8.97 %); format: functional; settings: time 5 day
CWR22R [9] = assay: Induction of apoptosis in human 22Rv1 cells at 10 uM incubated for 5 days by Annexin V-FITC/PI staining based flow cytometric analysis (reference value: 8.97 %); format: functional; settings: time 5 day
CWR22R [10] = assay: Induction of cell cycle arrest in human 22Rv1 cells assessed as accumulation of cells at G0/G1 phase incubated for 72 hrs by propidium iodide/RNase staining based flow cytometric analysis; format: functional
PC-3 [11] = assay: Induction of cell cycle arrest in human PC-3 cells assessed as accumulation of cells at G0/G1 phase incubated for 72 hrs by propidium iodide/RNase staining based flow cytometric analysis; format: functional
CWR22R [12] = assay: Induction of apoptosis in human 22Rv1 cells assessed as upregulation of cleaved PARP expression incubated for 48 hr by Western blotting analysis; format: functional, cell-based
CWR22R [13] = assay: Antimigratory activity in human 22Rv1 cells assessed as downregulation of N-cadherin expression at 3 to 10 uM incubated for 48 hrs by Western blotting analysis; format: functional, cell-based; settings: dose 3-10 µM
PC-3 [14] = assay: Antimigratory activity in human PC-3 cells assessed as upregulation of E-cadherin expression at 3 to 10 uM incubated for 48 hrs by Western blotting analysis; format: functional, cell-based; settings: dose 3-10 µM
PC-3 [15] = assay: Antimigratory activity in human PC-3 cells assessed as downregulation of E-cadherin expression at 3 to 10 uM incubated for 48 hrs by Western blotting analysis; format: functional, cell-based; settings: dose 3-10 µM
LNCaP [16] = assay: Antimigratory activity in human LNCaP cells assessed as upregulation of E-cadherin expression at 3 to 10 uM incubated for 48 hrs by Western blotting analysis; format: functional, cell-based; settings: dose 3-10 µM
LNCaP [17] = assay: Antimigratory activity in human LNCaP cells assessed as downregulation of N-cadherin expression at 3 to 10 uM incubated for 48 hrs by Western blotting analysis; format: functional, cell-based; settings: dose 3-10 µM
[18] = Metabolic stability in Sprague-Dawley rat hepatocyte assessed as compound remaining at 20 uM incubated for 30 mins by HPLC-MS/MS analysis; format: ADME, cell-based; settings: hepatocytes, read-out: Stability
[19] = Metabolic stability in Sprague-Dawley rat hepatocyte assessed as compound remaining at 20 uM incubated for 60 mins by HPLC-MS/MS analysis; format: ADME, cell-based; settings: hepatocytes, read-out: Stability
[20] = Metabolic stability in Sprague-Dawley rat hepatocyte assessed as compound remaining at 20 uM incubated for 180 mins by HPLC-MS/MS analysis; format: ADME, cell-based; settings: hepatocytes, read-out: Stability
[21] = Tmax in BALB/c mouse at 50 mg/kg,po measured upto 24 hrs by HPLC-MS/MS analysis; format: ADME, organism-based; settings: in vivo
[22] = Cmax in BALB/c mouse at 50 mg/kg,ip measured upto 24 hrs by HPLC-MS/MS analysis; format: ADME, organism-based; settings: in vivo
[23] = AUC (0 to infinity) in BALB/c mouse at 50 mg/kg,ip measured upto 24 hrs by HPLC-MS/MS analysis; format: ADME, organism-based; settings: in vivo
[24] = Oral bioavailability in BALB/c mouse at 50 mg/kg measured upto 24 hrs by HPLC-MS/MS analysis; format: ADME, organism-based; settings: in vivo
CWR22R [25] = assay: Antitumor activity against human 22Rv1 cells xenografted in BALB/c mouse assessed as tumor growth inhibition at 80 mg/kg,ip administrated daily for 31 days relative to control; format: functional; settings: 22Rv1, 744 h, time 31 day, read-out: TGI
[26] = Toxicity in BALB/c mouse xenografted with human 22Rv1 cells assessed as heart morphological change at 80 mg/kg,ip administrated daily for 31 days; format: organism-based, CWR22R; settings: in vivo, 744 h, time 31 day
[27] = target: T1, Lysine-specific histone demethylase 1A; assay: Inhibition of LSD1 in human LNCaP cells assessed as downregulation of AR expression incubated for 48 hrs by Western blotting analysis; format: cell-based
[28] = target: T1, Lysine-specific histone demethylase 1A; assay: Inhibition of LSD1 in human 22Rv1 cells assessed as downregulation of AR expression incubated for 48 hrs by Western blotting analysis; format: cell-based
[29] = target: T1, Lysine-specific histone demethylase 1A; assay: Inhibition of LSD1 in human 22Rv1 cells assessed as downregulation of AR-V7 expression at 1 to 20 uM incubated for 48 hrs by Western blotting analysis; format: cell-based; settings: dose 1-20 µM
LNCaP [30] = assay: Synergistic antiproliferative activity against human LNCaP cells assessed as inhibition of cell growth at 6.25 to 100 uM incubated for 6 to 7 days in presence of enzalutamide by MTS assay; format: functional, cell-based; settings: dose 6.25-100 µM, time 6-7 day
MV4-11 = assay: Antiproliferative activity against human MV4-11 cells assessed as inhibition of cell growth incubated for 6 to 7 days by MTS assay; format: functional, cell-based; settings: time 6-7 day
MOLM-13 = assay: Antiproliferative activity against human MOLM-13 cells assessed as inhibition of cell growth incubated for 6 to 7 days by MTS assay; format: functional, cell-based; settings: time 6-7 day
U-937 = assay: Antiproliferative activity against human U-937 cells assessed as inhibition of cell growth incubated for 6 to 7 days by MTS assay; format: functional, cell-based; settings: time 6-7 day
SU-DHL-2 = assay: Antiproliferative activity against human SU-DHL-2 cells assessed as inhibition of cell growth incubated for 6 to 7 days by MTS assay; format: functional, cell-based; settings: time 6-7 day
SUD4 = assay: Antiproliferative activity against human SU-DHL-4 cells assessed as inhibition of cell growth incubated for 6 to 7 days by MTS assay; format: functional, cell-based; settings: time 6-7 day
MDA-MB-231 = assay: Antiproliferative activity against human MDA-MB-231 cells assessed as inhibition of cell growth incubated for 6 to 7 days by MTS assay; format: functional, cell-based; settings: time 6-7 day
LNCaP C4-2B = assay: Antiproliferative activity against human LNCaP C4-2B cells assessed as inhibition of cell growth incubated for 6 to 7 days by MTS assay; format: functional, cell-based; settings: time 6-7 day
CWR22R [31] = settings: Homo sapiens, dose 80.0 mg/kg, route ip, time 31.0 day
CWR22R [32] = settings: Homo sapiens, dose 80.0 mg/kg, route ip, time 31.0 day; remark: listed apart in the source

Compound CCN(c1cc(-c2ccc([C@@H]3C[C@H]3N(CC3CCOCC3)C(=O)OC(C)(C)C)cc2)cc(C(=O)NCc2c(C)cc(C)[nH]c2=O)c1C)C1CCOCC1 (racemic) has a pIC50 [1] of under 5.52, a GI50 (PC-3 [2]) of 1.04 µM and a pIC50 [3] of 4.78. The Activity [4] was “Active”, the inhibition [5] was “Active” and the inhibition [6] was “Active”. For the same compound, the inhibition [7] was “Active”, the Activity (CWR22R [8]) was 30.97% and the Activity (CWR22R [9]) was 50.06%. For the same compound, the Activity (CWR22R [10]) was “Dose-Dependent Effect”, the Activity (PC-3 [11]) was “Dose-Dependent Effect” and the Activity (CWR22R [12]) was “Dose-Dependent Effect”. For the same compound, the Activity (CWR22R [13]) was “Active”, the Activity (PC-3 [14]) was “Active” and the Activity (PC-3 [15]) was “Active”. For the same compound, the Activity (LNCaP [16]) was “Active”, the Activity (LNCaP [17]) was “Active” and the remaining at 0.5 h, 20 µM [18] was 93%. The remaining at 1 h, 20 µM [19] was 84.3%, the remaining at 3 h, 20 µM [20] was 70% and the Tmax [21] was 1 h. The Cmax [22] was 20600 ng/mL, the AUC(0-inf) [23] was 112 µg·h/mL and the bioavailability [24] was 32.9%. The inhibition in vivo at 80 mg/kg (CWR22R [25]) was 52.2%, the Activity [26] was “Non-Toxic” and the inhibition [27] was “Dose-Dependent Effect”. For the same compound, the inhibition [28] was “Dose-Dependent Effect”, the inhibition [29] was “Active” and the Activity (LNCaP [30]) was “Active”. The Activity (MV4-11) was “Active”, the Activity (MOLM-13) was “Active” and the Activity (U-937) was “Active”. The Activity (SU-DHL-2) was “Active”, the Activity (SUD4) was “Active” and the Activity (MDA-MB-231) was “Active”. For the same compound, the Activity (LNCaP C4-2B) was “Active”, the inhibition (CWR22R [31]) was “Active” and the inhibition (CWR22R [32]) was “Active”.
